Laboratory results published in patent US11154569B2, “Ruthenium μ-nitrido complexes and their use as calcium uptake inhibitors” (CORNELL UNIVERSITY, priority 2018, dated 2021).

Experiments:
[1] = test system: mitochondria isolated from NRVMs; assay: Mitochondrial swelling assay (Ca2+-induced mPTP opening); assay type: cell-based, rat; conditions: 50 μM compound, Ca2+ 250 μM
Protocol: NRVMs were homogenized in ice-cold mitochondrial isolation buffer (10 mM sucrose, 200 mM mannitol, 5 mM HEPES, and 1 mM EGTA, pH 7.4) containing 1 mg/mL fatty acid-free bovine serum albumin. The homogenate was centrifuged for 10 minutes at 1000×g, and the supernatant was centrifuged again at 14,000×g for 10 minutes. The mitochondrial pellets were washed twice and centrifuged at 11,200×g. The isolated mitochondria (1 mg protein) were added to 0.2 mL of buffer mitochondrial swelling buffer (70 mM sucrose, 230 mM mannitol, 3 mM HEPES, 2 mM Trisphosphate, 5 mM succinate). Mitochondrial swelling was measured by decrease in absorbance at 540 nm after addition of Ca^2+ (250 μM). To study the protective effect of C-2 and Ru360, mitochondrial swelling assay was performed in mitochondria treated with or without the compounds (50 μM).
Additionally, the swelling of mitochondria isolated from NRVMs subjected to H/R injury in the absence or presence of C-2 or Ru360 was monitored. After baseline measurement of the absorbance at 600 nm, a single bolus of Ca^2+ (250 μM) was added to induce mPTP opening. As known, the decrease in mitochondrial absorbance indicates mitochondrial swelling and subsequent mPTP opening.

[2] = target: T1, recombinant human MCU-NTD (residues 72-189) (Homo sapiens, UniProt Q8NE86); assay: Interaction with recombinant MCU-NTD (NMR HSQC, SDS-PAGE); assay type: binding; conditions: for interaction with MCU-NTD in solution: cell-free, C-2 at 3-fold molar excess
T1 construct: recombinant human MCU-NTD (residues 72-189)
T1 sequence (Q8NE86 72-189): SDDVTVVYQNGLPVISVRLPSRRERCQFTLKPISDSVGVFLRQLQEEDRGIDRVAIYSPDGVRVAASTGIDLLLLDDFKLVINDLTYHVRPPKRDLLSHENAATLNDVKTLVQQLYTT
Excerpt: To further elucidate the potential interaction of C-2 with the MCU-NTD, the interaction between C-2 and the uniformly ^15N-labeled recombinant human MCU-NTD (residues 72-189) was investigated using solution nuclear magnetic resonance (NMR) spectroscopy.
To determine if the MCU-NTD remained intact upon treatment with C-2, the insoluble aggregate (Insol.+C-2) was resuspended in loading dye and the migration of the protein was compared to untreated soluble MCU-NTD (Sol.) by SDIS-PAGE analysis. […] The appearance of the trimer and higher order aggregates upon treatment with C-2 may indicate that the MCU-NTD conformation induced by C-2 is different from that of the native conformation. Similar MCU-NTD aggregation was observed when the MCU-NTD was treated with lower molar ratios (i.e. 1:2 and 1:1) of C-2.
The clustering of these perturbations could be a result of i) direct binding with the compound, ii) indirect effects of the lower soluble protein concentration shifting the self-association equilibrium, or iii) C-2-mediated modifications to the protein. […] Thus, the NTD may be a potent target for MCU inhibition that is only accessible to C-2 because of its enhanced membrane permeability when compared to Ru360.

MCU C97A mutant = target: T2, MCU C97A mutant (Homo sapiens, UniProt Q8NE86, C97A); assay: mCa2+ uptake in permeabilized HEK293T cells expressing MCU C97A mutant; assay type: cell-based; conditions: C-2 10 nM, Ru360 500 nM
T2 construct: stably expressing Flag-tagged full-length wild-type MCU (MCU^WT) and the mutant C97A (MCU^C97A); Flag; expressed in transfected cells
T2 sequence (Q8NE86 51-351 C97A): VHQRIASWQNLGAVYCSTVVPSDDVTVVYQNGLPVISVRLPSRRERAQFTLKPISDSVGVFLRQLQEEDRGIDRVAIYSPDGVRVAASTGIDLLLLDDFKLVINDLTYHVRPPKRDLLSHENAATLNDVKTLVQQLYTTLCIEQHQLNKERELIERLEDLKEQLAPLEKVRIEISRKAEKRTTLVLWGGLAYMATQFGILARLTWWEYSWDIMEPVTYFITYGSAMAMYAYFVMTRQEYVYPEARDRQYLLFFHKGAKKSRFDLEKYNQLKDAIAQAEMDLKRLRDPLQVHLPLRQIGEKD
T2 sequence (Q9H4I9 48-107 partner limits assumed): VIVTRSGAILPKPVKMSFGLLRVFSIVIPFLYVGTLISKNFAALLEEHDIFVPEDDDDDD
Protocol: (§1) An equal number of IHEK293T (6×10^6 cells) were washed in Ca^2+ free PBS, pH 7.4, resuspended and permeabilized with 40 μg/ml digitonin in 1.5 ml of intracellular medium (ICM) composed of 120 mM KCl, 10 mM NaCl, 1 mM K—H2PO4, 20 mM HE PES-Tris, pH 7.2 and 2 μM thapsigargin to block the SERCA pump. All measurements were performed in the presence of 2 mM succinate. The permeabilized cells were loaded with JC-1 (800 nM) and Fura2-FF (0.5 μM), respectively. Fluorescence was monitored in a multi-wavelength excitation dual-wavelength emission fluorimeter. [Ca^2+]out is represented as the excitation ratio (340 nm/380 nm) of Fura2-FF/FA fluorescence and ΔΨm as the ratio of the fluorescence of J-aggregate (570 nm excitation/595 nm emission) and monomer (490 nm excitation/535 nm emission) forms of JC-1. A series of extra-mitochondrial Ca^2+ bolus (20 μM) was added and mitochondrial uncoupler, CCCP (2 jμM), were added at the indicated time points. All of the experiments were performed at 37° C. with constant stirring.
To determine if C-2 interacts with the NTD, HEK293T cells stably expressing Flag-tagged full-length wild-type MCU (MCU^WT) and the mutant C97A (MCU^C97A) were permeabilized, and mCa^2+ uptake was measured as above.

mCa2+ efflux channels = assay: Mitochondrial Ca2+ efflux in permeabilized HEK293T cells; assay type: cell-based, human; conditions: for effect on mCa2+ efflux: 1 μM added after 20 μM Ca2+ pulse
Protocol: as §1
FIG. 4D is a graph showing assessment of mitochondrial Ca^2+ influx and efflux rates. Permeabilized HEK293T cells were pulsed with 20 μM Ca^2+ at 350 s to measure mitochondrial Ca^2+ uptake, followed by the addition of the 1 μM C-2 or Ru360 at 550 s, 10 μM CGP37157 at 600 s, and 6 μM CCCP at 750 s. In FIG. 4D, a representative trace depicts the comparison of C-2 and Ru360. FIG. 4E is a bar chart showing quantitation of Ca^2+ influx rate. FIG. 4F is a bar chart showing quantification of Ca^2+ efflux rate after addition of C-2 or Ru360. FIG. 4G is a bar chart showing quantification of CCCP-induced release of accumulated mitochondrial Ca^2+. […] To further confirm the selectivity of C-2 for the MCU, mCa^2+ uptake, mCa^2+ efflux rates and matrix Ca^2+ levels were measured in permeabilized HEK293T cells before and after treatment with C-2 using the fluorescent Ca^2+ indicator Fura-2-FF. […] Ru360 or C-2 were next added to inhibit MCU-mediated Ca^2+ uptake and subsequently visualize [Ca^2+]m efflux (FIG. 4D).

Row | SMILES | mitochondrial swelling (decrease in absorbance after Ca2+ addition) [1] | interaction with MCU-NTD in solution [2] | effect of MCU C97A mutation on MCU inhibition compared to MCU WT cells (MCU C97A mutant) | effect on mCa2+ efflux (mCa2+ efflux channels) | SDS-PAGE of protein precipitate formed with MCU-NTD ([2]; Coomassie blue staining) | change in activity upon treatment with CGP-37157 and CCCP (mCa2+ efflux channels; 10 μM CGP37157, 6 μM CCCP)
1 | N.N.N.N.N.N.N.N.O=C[O-].O=C[O-].[O-2].[Ru+3].[Ru+4] [Ru360, reference compound] | no decrease in absorbance was observed | interacts with the purified MCU-NTD in a cell-free system, giving rise to precipitation and systematic laddering | almost no effect on the activity | do not affect mCa^2+ efflux channels | – | –
2 | N.N.N.N.N.N.N.N.[Cl-].[Cl-].[N-3].[Ru+4].[Ru+4] [C-2, [Ru2(μ-N)(NH3)8Cl2]Cl3] | no decrease in absorbance was observed | rapid formation of insoluble precipitate | significantly reduced MCU inhibitory activity | do not affect mCa^2+ efflux channels | distinct and systematic laddering corresponding to the presence of monomer, dimer, trimer, tetramer, and higher aggregate formation | No change
